From article PMC9820444, “Design and Synthesis of Acridine-Triazole and Acridine-Thiadiazole Derivatives and Their Inhibitory Effect against Cancer Cells” (International Journal of Molecular Sciences, 2022)
Where two headings read alike, the source gives them in different places. Marks after values point to notes of the source that are not given here.

Columns and labels:
[1] = test system: large cell lung cancer cells (NCI-H460); test: MTT antiproliferative assay, NCI-H460; type: cell-based, human; details: Homo sapiens, read-out: Effect against cell viability (IC50), NCI-H460
[2] = test system: human foreskin fibroblasts (HFF); test: MTT antiproliferative assay, HFF; type: cell-based; details: Homo sapiens, Fibroblast, read-out: Effect against cell viability (IC50), HFF
[3] = test system: bladder cancer cells (T24); test: MTT antiproliferative assay, T24; type: cell-based, human; details: Homo sapiens, read-out: Effect against cell viability (IC50), T24
[4] = test system: human normal liver cells (LO2); test: Cytotoxicity against normal liver cells LO2; type: cell-based; details: Homo sapiens, MTT, read-out: Effect against cell viability (IC50), LO2
[5] = test system: zebrafish embryos; details: zebrafish embryos 72 hpf
[6] = test system: subintestinal veins (SIVs) in zebrafish embryos; test: Zebrafish angiogenesis assay (subintestinal veins, NBT/BCIP staining); type: in vivo; details: zebrafish embryos, 1 mg/mL, compared with blank control group
Text: Currently, the zebrafish has emerged as a valuable model organism to substitute traditional models for studying angiogenesis inhibitors. The genes of zebrafish show 70–80% similarity to humans, and the vascular structure of zebrafish has high similarity to that of other vertebrates. Therefore, the subintestinal veins (SIVs) in the zebrafish embryos are used as evaluation indicators for anti-angiogenesis inhibitors. In this study, NBT/BCIP vascular staining was used to observe the angiogenesis effect of representative drugs (4h, 4f, 5d, 5h, 6g and 6h) in a zebrafish model. […] Compared with the blank control group, the area of the meshed pattern vessel and the number of vascular branches in the network decreased after the administration of compounds 4h, 5d, 5h and 6h.
The 24 hpf zebrafish embryos were dechorionated with a 1 gL^−1 pronase treatment and maintained in distilled water in 12-well cell culture plates (each well contained 20 embryos). A negative control group containing zebrafish embryos in distilled water and a vehicle treatment group that was treated with 2% dimethyl sulfoxide (DMSO) were prepared. The anti-angiogenic compounds were diluted to 1 mg/mL. After incubating at 28 °C for […], the embryos were immersed in 4% paraformaldehyde and dehydrated by gradient ethanol. Subsequently, the embryos were balanced in NTMT buffer (5 M NaCl + 1 M Tris [pH 9.0–9.5] + 1 M MgCl2+ 10% Tween), and nitrotetrazolium blue chloride (NBT) and p-toluidine salt (BCIP) staining were performed. To evaluate the effect of compounds on the angiogenesis of zebrafish embryos, the growth of embryonic sub-intestinal veins (SIVs) at 72 hpf was observed using an IX71 Olympus microscope (Hamburger, Germany). The length of the SIVs was calculated using the image J 1.8.0 software (Bethesda, MD, USA).

[7] = biological target: T1, DNA topoisomerase I (topo I) (Bos taurus, UniProt F1MN93); test: Topo I inhibitory activity (pBR322); type: biochemical; details: at 100 µM
T1 construct: purchased Takara Bio Inc. (Shiga, Japan)
T1 sequence (F1MN93 1-767): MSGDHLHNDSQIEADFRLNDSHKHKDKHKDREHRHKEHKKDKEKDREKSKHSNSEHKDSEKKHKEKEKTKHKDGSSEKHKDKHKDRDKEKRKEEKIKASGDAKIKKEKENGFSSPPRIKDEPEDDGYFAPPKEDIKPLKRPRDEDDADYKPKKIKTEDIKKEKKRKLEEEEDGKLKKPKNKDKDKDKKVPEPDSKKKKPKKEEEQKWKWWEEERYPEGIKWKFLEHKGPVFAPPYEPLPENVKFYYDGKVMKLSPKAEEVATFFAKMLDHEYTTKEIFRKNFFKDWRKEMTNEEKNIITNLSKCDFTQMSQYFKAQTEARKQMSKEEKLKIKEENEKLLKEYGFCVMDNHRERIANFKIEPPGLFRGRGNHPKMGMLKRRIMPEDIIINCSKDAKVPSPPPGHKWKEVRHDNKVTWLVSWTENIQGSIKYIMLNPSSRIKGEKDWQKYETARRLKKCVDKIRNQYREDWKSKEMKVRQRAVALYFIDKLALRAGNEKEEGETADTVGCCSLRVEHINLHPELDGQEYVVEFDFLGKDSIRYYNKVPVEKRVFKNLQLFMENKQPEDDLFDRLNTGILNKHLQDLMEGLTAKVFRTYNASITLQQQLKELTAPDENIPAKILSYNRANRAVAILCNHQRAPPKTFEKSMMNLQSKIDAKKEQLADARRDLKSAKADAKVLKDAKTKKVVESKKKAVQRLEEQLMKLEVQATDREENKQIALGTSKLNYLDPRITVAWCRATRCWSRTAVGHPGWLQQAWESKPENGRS

[8] = test system: human gastric cancer cells-803 (MGC-803); test: MTT antiproliferative assay, MGC-803; type: cell-based; details: Homo sapiens, MGC-803, MTT, read-out: Effect against cell viability (IC50), MGC-803

`COc1ccc(-c2nnc(N=C3c4ccccc4NC4C=CC(C)=CC34)s2)cc1` (stereo not shown) [6h, 7-methyl-N-(5-(4-methoxyphenyl)-1,3,4-thiadiazol-2-yl)-10,10a-dihydroacridin-9(8aH)-imine] gave an IC50 [1] of 13.3 ± 1.39 µM, an IC50 [2] of 33.9 ± 1.28 µM and an IC50 [3] of 8.93 ± 1.25 µM. For the same compound, the IC50 [4] was 43.8 ± 2.63 µM, the “MAR (malformation rate)” value ([5]; 1 mg/mL) was 35% ^b and the “MOR (mortality rate)” value ([5]; 1 mg/mL) was 0%. The “MAR (malformation rate)” value ([5]; 1.5 mg/mL) was 80% ^b, the “MOR (mortality rate)” value ([5]; 1.5 mg/mL) was 0% and the “MAR (malformation rate)” value ([5]; 2 mg/mL) was 65% ^b. For the same compound, the “MOR (mortality rate)” value ([5]; 2 mg/mL) was 15% ^b, the “area of the meshed pattern vessel and number of vascular branches in the network” value [6] was “decreased” and the “topo I inhibitory activity” value [7] was “potent”. It also gave an IC50 [8] of 6.85 ± 0.84 µM.
